# From PMC6349922
# Assay: RCM stapling (C=C formation) of two bridgehead alkenyl ether chains of 7-azabicyclo[2.2.1]heptane amide dimers; Grubbs I, 5-7 mol% (about 2.5-3 mol% for 36), added dropwise over 10-15 min, reflux under Ar
# Details: CH2Cl2, 1.0 mM, 40.0 °C
structure (smiles),measurement,setting,value
CC(C)(C)OC(=O)N1[C@H]2CC[C@@]13COCCCC=CCCCOCC14CCC(CC1)N4C(=O)[C@H]2C3 [1 -> 6 (C8)],"ring closure, isolated yield","from C=CCCCOCC12CCC(CC1)N2C(=O)[C@H]1C[C@@]2(COCCCC=C)CC[C@@H]1N2C(=O)OC(C)(C)C, 18-membered ring, 8.0 h",73%
CC(C)(C)OC(=O)N1[C@H]2CC[C@@]13COCCCCC=CCCCOCC14CCC(CC1)N4C(=O)[C@H]2C3 [2 -> 7 (C9)],"ring closure, isolated yield","from C=CCCCCOC[C@@]12CC[C@@H]([C@@H](C(=O)N3C4CCC3(COCCCC=C)CC4)C1)N2C(=O)OC(C)(C)C, 19-membered ring, 4.0 h",80%
CC(C)(C)OC(=O)N1[C@H]2CC[C@@]13COCCCCC=CCCCCOCC14CCC(CC1)N4C(=O)[C@H]2C3 [3 -> 8 (C10)],"ring closure, isolated yield","from C=CCCCCOCC12CCC(CC1)N2C(=O)[C@H]1C[C@@]2(COCCCCC=C)CC[C@@H]1N2C(=O)OC(C)(C)C, 20-membered ring, 3.0 h",94%
CC(C)(C)OC(=O)N1[C@H]2CC[C@@]13COCCCCCC=CCCCCOCC14CCC(CC1)N4C(=O)[C@H]2C3 [4 -> 9 (C11)],"ring closure, isolated yield","from C=CCCCCCOC[C@@]12CC[C@@H]([C@@H](C(=O)N3C4CCC3(COCCCCC=C)CC4)C1)N2C(=O)OC(C)(C)C, 21-membered ring, 2.0 h",87%
CC(C)(C)OC(=O)N1[C@H]2CC[C@@]13COCCCCCC=CCCCCCOCC14CCC(CC1)N4C(=O)[C@H]2C3 [5 -> 10 (C12)],"ring closure, isolated yield","from C=CCCCCCOCC12CCC(CC1)N2C(=O)[C@H]1C[C@@]2(COCCCCCC=C)CC[C@@H]1N2C(=O)OC(C)(C)C, 22-membered ring, 16.0 h",64%
"Cc1ccc(S(=O)(=O)N2[C@H]3CC[C@@]24COCCCCC=CCCCCOCC25CCC(CC2)N5C(=O)[C@H]3C4)cc1 [36 -> Ts-8 (C10, N-Ts)]","ring closure, isolated yield","from C=CCCCCOCC12CCC(CC1)N2C(=O)[C@H]1C[C@@]2(COCCCCC=C)CC[C@@H]1N2S(=O)(=O)c1ccc(C)cc1, 20-membered ring, 1.0 h",91%
